Assay results: PubChem BioAssay AID248 (DTP/NCI, 2004)
Several values for one entry are separate records, joined by “and”; a condition that tells them apart may be missing. Equal entries are not always repeated. Inconclusive results and toxic doses are left out. Cut-off read from the data, not from the text of the source: active = T/C of 150% or more; inactive = T/C below 125%.

System: L1210 leukemia ip in BDF1 mice, survival T/C
Assay: NCI In Vivo Anticancer Drug Screen. Data for tumor model L1210 Leukemia (intraperitoneal) in B6D2F1 (BDF1) mice
Conditions: endpoint: mean survival time, higher = longer survival
Outline: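 Read-out is survival time, reported as the treated-group measurement over the vehicle-control measurement.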

[1] = dose: 50.0 mg/kg/injection, schedule: Q01DX009 (ip), vehicle: saline
[2] = dose: 100.0 mg/kg/injection, schedule: Q04DX003 (ip), vehicle: saline
[3] = dose: 200.0 mg/kg/injection, schedule: Q04DX003 (ip), vehicle: saline
[4] = dose: 100.0 mg/kg/injection, schedule: Q01DX009 (ip), vehicle: saline with Tween-80
[5] = dose: 100.0 mg/kg/injection, schedule: Q04DX003 (ip), vehicle: saline with Tween-80
[6] = dose: 200.0 mg/kg/injection, schedule: Q01DX009 (ip), vehicle: saline with Tween-80
[7] = dose: 200.0 mg/kg/injection, schedule: Q04DX003 (ip), vehicle: saline with Tween-80
[8] = dose: 400.0 mg/kg/injection, schedule: Q01DX009 (ip), vehicle: saline with Tween-80
[9] = dose: 400.0 mg/kg/injection, schedule: Q04DX003 (ip), vehicle: saline with Tween-80
[10] = dose: 100.0 mg/kg/injection, schedule: Q01DX001 (ip), vehicle: Klucel (hydroxypropylcellulose) (HPC)
[11] = dose: 200.0 mg/kg/injection, schedule: Q01DX001 (ip), vehicle: Klucel (hydroxypropylcellulose) (HPC)
[12] = dose: 400.0 mg/kg/injection, schedule: Q01DX001 (ip), vehicle: Klucel (hydroxypropylcellulose) (HPC)
[13] = dose: 100.0 mg/kg/injection, schedule: Q01DX009 (ip), vehicle: Klucel (hydroxypropylcellulose) (HPC)
[14] = dose: 200.0 mg/kg/injection, schedule: Q01DX009 (ip), vehicle: Klucel (hydroxypropylcellulose) (HPC)
[15] = dose: 400.0 mg/kg/injection, schedule: Q01DX009 (ip), vehicle: Klucel (hydroxypropylcellulose) (HPC)
[16] = dose: 75.0 mg/kg/injection, schedule: Q01DX001 (ip), vehicle: saline
[17] = dose: 150.0 mg/kg/injection, schedule: Q01DX001 (ip), vehicle: saline
[18] = dose: 300.0 mg/kg/injection, schedule: Q01DX001 (ip), vehicle: saline
[19] = dose: 100.0 mg/kg/injection, schedule: Q04DX003 (ip), vehicle: Klucel (hydroxypropylcellulose) (HPC)
[20] = dose: 200.0 mg/kg/injection, schedule: Q04DX003 (ip), vehicle: Klucel (hydroxypropylcellulose) (HPC)
[21] = dose: 400.0 mg/kg/injection, schedule: Q04DX003 (ip), vehicle: Klucel (hydroxypropylcellulose) (HPC)
[22] = dose: 100.0 mg/kg/injection, schedule: Q01DX001 (ip), vehicle: carboxymethylcellulose (CMC)
[23] = dose: 200.0 mg/kg/injection, schedule: Q01DX001 (ip), vehicle: carboxymethylcellulose (CMC)

Measured: T/C

CS(=O)(=O)OC[C@H](OS(=O)(=O)O)[C@H](COS(C)(=O)=O)OS(=O)(=O)O
inactive: [1] 106 % of control | dose: 50.0 mg/kg/injection, schedule: Q04DX003 (ip), vehicle: saline 89 % of control | dose: 100.0 mg/kg/injection, schedule: Q01DX001 (ip), vehicle: saline 89 % of control | dose: 100.0 mg/kg/injection, schedule: Q01DX009 (ip), vehicle: saline 95 % of control | [2] 96 % of control | dose: 200.0 mg/kg/injection, schedule: Q01DX001 (ip), vehicle: saline 95 % of control | dose: 200.0 mg/kg/injection, schedule: Q01DX009 (ip), vehicle: saline 98 % of control | [3] 91 % of control

Cc1ccc(S(=O)(=O)N2CC(O)CC2C(=O)O)cc1 (stereo unspecified)
inactive: [4] 96 % of control | [5] 93 % of control and 100 % of control | [6] 101 % of control | [7] 95 % of control and 103 % of control | [8] 101 % of control | [9] 93 % of control and 96 % of control

COc1ccc2c(n1)Sc1c(Cl)nc(N)nc1N2
inactive: [10] 97 % of control | [11] 97 % of control | [12] 98 % of control

CC(=O)n1c(O)c(N=NC(=O)c2ccccc2[N+](=O)[O-])c2ccccc21
inactive: [13] 86 % of control | [14] 93 % of control | [15] 89 % of control

O=[N+]([O-])c1ccc(Oc2ccc(S(=O)(=O)F)cc2)cc1
inactive: [13] 106 % of control | [14] 97 % of control | [15] 98 % of control

C=C(C)C1(C)C(=O)NC(=S)NC1=O
inactive: [16] 108 % of control | [17] 100 % of control | [18] 107 % of control

ClC1=C(Cl)C(Cl)(Cl)C(Cl)(Cl)C1(Cl)Cl
inactive: dose: 12.5 mg/kg/injection, schedule: Q01DX009 (ip), vehicle: saline 99 % of control | dose: 25.0 mg/kg/injection, schedule: Q01DX009 (ip), vehicle: Klucel (hydroxypropylcellulose) (HPC) 92 % of control | dose: 25.0 mg/kg/injection, schedule: Q01DX009 (ip), vehicle: saline 95 % of control | dose: 50.0 mg/kg/injection, schedule: Q01DX009 (ip), vehicle: Klucel (hydroxypropylcellulose) (HPC) 96 % of control | [1] 97 % of control | [13] 87 % of control | [19] 104 % of control | [20] 96 % of control | [21] 102 % of control

COc1ccc(Cl)cc1/C=C/C=N/NC(=O)c1cccc(C)c1O
inactive: dose: 75.0 mg/kg/injection, schedule: Q01DX001 (ip), vehicle: carboxymethylcellulose (CMC) 86 % of control | dose: 150.0 mg/kg/injection, schedule: Q01DX001 (ip), vehicle: carboxymethylcellulose (CMC) 89 % of control | dose: 300.0 mg/kg/injection, schedule: Q01DX001 (ip), vehicle: carboxymethylcellulose (CMC) 86 % of control

CCC(c1ccc2cc(OC)ccc2c1)C(C)(C)C(=O)O (stereo unspecified)
inactive: dose: 100.0 mg/kg/injection, schedule: Q01DX001 (sc), vehicle: steriod suspending solution 112 % of control | dose: 200.0 mg/kg/injection, schedule: Q01DX001 (sc), vehicle: steriod suspending solution 95 % of control | dose: 400.0 mg/kg/injection, schedule: Q01DX001 (sc), vehicle: steriod suspending solution 101 % of control

COc1cc2c(c(-c3c(O)c(OC)cc4c3CC[n+]3cc5c(OC)c(OC)ccc5cc3-4)c1O)CC[n+]1cc3c(OC)c(OC)ccc3cc1-2
inactive: dose: 50.0 mg/kg/injection, schedule: Q04DX002 (ip), vehicle: Klucel (hydroxypropylcellulose) (HPC) 100 % of control | dose: 100.0 mg/kg/injection, schedule: Q04DX002 (ip), vehicle: Klucel (hydroxypropylcellulose) (HPC) 108 % of control | dose: 200.0 mg/kg/injection, schedule: Q04DX002 (ip), vehicle: Klucel (hydroxypropylcellulose) (HPC) 100 % of control

Cc1ccnc(NS(=O)(=O)c2ccc(N=Nc3cc(N=Nc4ccccc4)c(N)nc3N)cc2)n1
inactive: [22] 105 % of control | [23] 102 % of control

C[n+]1cccc(C(=O)NCCc2c[nH]c3ccccc23)c1
inactive: [16] 96 % of control | [17] 104 % of control

CC(=O)c1ccc(-c2ccccc2)cc1
inactive: [4] 91 % of control | [6] 93 % of control | [8] 96 % of control

O=C1C2CC(CN3CCCCC23)C2CCCCN12 (stereo unspecified)
inactive: [16] 94 % of control | [17] 103 % of control | [18] 101 % of control

O=C(O)c1c(O)cc(=O)oc1-c1ccc(Cl)cc1Cl
inactive: [16] 101 % of control | [17] 101 % of control | [18] 106 % of control

OCC1C(CO)C2(Cl)C(Cl)=C(Cl)C1(Cl)C2(Cl)Cl (stereo unspecified)
inactive: [13] 90 % of control | [2] 94 % of control | [14] 100 % of control | [3] 101 % of control | [15] 111 % of control | dose: 400.0 mg/kg/injection, schedule: Q04DX003 (ip), vehicle: saline 99 % of control

CC1CCOCO1 (stereo unspecified)
inactive: dose: 50.0 mg/kg/injection, schedule: Q01DX001 (ip), vehicle: carboxymethylcellulose (CMC) 98 % of control | [22] 98 % of control | [23] 95 % of control | dose: 400.0 mg/kg/injection, schedule: Q01DX001 (ip), vehicle: carboxymethylcellulose (CMC) 95 % of control

CCOC(=O)/C=C/C(=O)O.[Cu+2]
inactive: dose: 3.12 mg/kg/injection, schedule: Q04DX003 (ip), vehicle: saline 94 % of control | dose: 6.25 mg/kg/injection, schedule: Q04DX003 (ip), vehicle: saline 89 % of control and 91 % of control

CCC[CH2][Sn]1([CH2]CCC)[O]OC(c2ccc(C(=O)OCC)cc2)[O]1 (stereo unspecified)
inactive: dose: 6.25 mg/kg/injection, schedule: Q04DX002 (ip), vehicle: other 102 % of control

CCCCOP(=O)(c1ccccc1)N1CCCCC1 (stereo unspecified)
inactive: dose: 25.0 mg/kg/injection, schedule: Q04DX002 (ip), vehicle: saline with Tween-80 103 % of control | dose: 50.0 mg/kg/injection, schedule: Q04DX002 (ip), vehicle: saline with Tween-80 103 % of control | dose: 100.0 mg/kg/injection, schedule: Q04DX002 (ip), vehicle: saline with Tween-80 92 % of control and 107 % of control

c1ccc2c(c1)ccc1oc3ccc4ccccc4c3c12
inactive: dose: 18.75 mg/kg/injection, schedule: Q04DX003 (ip), vehicle: Klucel (hydroxypropylcellulose) (HPC) 97 % of control | dose: 37.5 mg/kg/injection, schedule: Q04DX003 (ip), vehicle: Klucel (hydroxypropylcellulose) (HPC) 97 % of control and 98 % of control | dose: 75.0 mg/kg/injection, schedule: Q04DX003 (ip), vehicle: Klucel (hydroxypropylcellulose) (HPC) 101 % of control and 103 % of control | [19] 103 % of control | dose: 150.0 mg/kg/injection, schedule: Q04DX003 (ip), vehicle: Klucel (hydroxypropylcellulose) (HPC) 104 % of control | [20] 97 % of control | [21] 101 % of control

C/C=C/C(=O)Nc1cccc(OC(=O)NCC)c1
inactive: [5] 95 % of control | [7] 93 % of control | [9] 98 % of control

CC(C)CCC[C@@H](C)[C@H]1CC[C@H]2[C@@H]3CC[C@H]4C[C@H]5N[C@H]5C[C@]4(C)[C@H]3CC[C@]12C
inactive: [10] 93 % of control | [12] 90 % of control

CCC/C(=N/NC(=O)CNC(=O)c1ccccc1)c1ccccc1
inactive: [4] 100 % of control | [6] 96 % of control | [8] 92 % of control

CC(=O)c1ccc(C(=O)O)cc1
inactive: dose: 50.0 mg/kg/injection, schedule: Q01DX009 (ip), vehicle: saline with Tween-80 87 % of control | [4] 115 % of control | [6] 94 % of control

Cc1ccc(NC(=O)Nc2onc(C)c2C)c([N+](=O)[O-])c1
inactive: dose: 25.0 mg/kg/injection, schedule: Q04DX003 (ip), vehicle: Klucel (hydroxypropylcellulose) (HPC) 93 % of control | dose: 50.0 mg/kg/injection, schedule: Q04DX003 (ip), vehicle: Klucel (hydroxypropylcellulose) (HPC) 93 % of control | [19] 93 % of control and 88 % of control

O=C1/C(=C/c2ccco2)CC/C1=C\c1ccco1
inactive: [10] 93 % of control | [19] 94 % of control | [11] 101 % of control | [20] 96 % of control | [12] 95 % of control | [21] 96 % of control

OC1CCCC[CH]1[Hg][Cl] (stereo unspecified)
inactive: dose: 5.0 mg/kg/injection, schedule: Q01DX001 (ip), vehicle: saline 95 % of control
